# Data: patent US4262004A, “2,3-Dihydro-imidazo[2,1-b]benzothiazole compositions to treat depressions” (Janssen Pharmaceutica, N.V., priority 1979, dated 1981)
# Where a name gives a salt, the structure may show the parent alone. Read-outs that look alike come from different tables or passages of the source.
# How the values were obtained:
# [1] = target: T1, monoamine oxidase (type A enzyme, tryptamine substrate) (Rattus norvegicus, UniProt P21396); assay: in-vitro monoamine oxidase inhibition, [14C]tryptamine as substrate; assay type: biochemical; conditions: Table I; monoamine oxidase extract of Wistar rat tissue, pH 7.4, 37° C., 20 minutes; read-out: I.C.50-value using as substrate [14C]tryptamine
# T1 sequence (P21396 1-526): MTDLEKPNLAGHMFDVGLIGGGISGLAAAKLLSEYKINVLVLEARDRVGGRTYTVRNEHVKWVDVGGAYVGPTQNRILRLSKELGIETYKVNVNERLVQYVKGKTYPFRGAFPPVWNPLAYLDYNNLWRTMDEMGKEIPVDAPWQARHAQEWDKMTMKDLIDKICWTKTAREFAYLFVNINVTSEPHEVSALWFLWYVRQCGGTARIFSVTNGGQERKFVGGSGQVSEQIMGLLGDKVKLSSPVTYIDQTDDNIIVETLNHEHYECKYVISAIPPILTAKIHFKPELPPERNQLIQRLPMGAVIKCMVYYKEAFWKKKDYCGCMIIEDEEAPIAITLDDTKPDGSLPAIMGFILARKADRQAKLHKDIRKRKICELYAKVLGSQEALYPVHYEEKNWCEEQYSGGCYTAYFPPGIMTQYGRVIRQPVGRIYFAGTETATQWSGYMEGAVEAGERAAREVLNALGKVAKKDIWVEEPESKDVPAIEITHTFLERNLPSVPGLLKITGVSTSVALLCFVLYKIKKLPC
# [2] = target: T2, monoamine oxidase (type B enzyme, β-phenylethylamine substrate) (Rattus norvegicus, UniProt P19643); assay: in-vitro monoamine oxidase inhibition, [14C]phenylethylamine hydrochloride as substrate; assay type: biochemical; conditions: monoamine oxidase extract of Wistar rat tissue, pH 7.4, 37° C., 20 minutes
# T2 sequence (P19643 1-520): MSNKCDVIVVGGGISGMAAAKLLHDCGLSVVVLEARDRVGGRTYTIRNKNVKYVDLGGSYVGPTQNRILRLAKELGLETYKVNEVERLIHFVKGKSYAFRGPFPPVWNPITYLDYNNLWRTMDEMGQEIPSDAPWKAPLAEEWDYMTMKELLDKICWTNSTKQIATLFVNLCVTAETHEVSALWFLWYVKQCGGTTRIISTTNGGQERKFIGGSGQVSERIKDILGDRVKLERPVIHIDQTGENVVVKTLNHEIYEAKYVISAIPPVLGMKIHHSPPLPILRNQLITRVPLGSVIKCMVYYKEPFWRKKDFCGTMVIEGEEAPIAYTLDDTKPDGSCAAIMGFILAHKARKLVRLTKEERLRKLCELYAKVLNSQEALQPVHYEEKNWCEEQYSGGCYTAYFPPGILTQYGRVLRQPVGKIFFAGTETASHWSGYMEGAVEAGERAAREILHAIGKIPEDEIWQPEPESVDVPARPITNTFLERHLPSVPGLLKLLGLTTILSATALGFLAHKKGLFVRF
# [3] = Table I, read-out: I.C.50-value using as substrate [14C]phenylethylamine . HCl
SMILES,IC50 [1],"IC50 [2, 3]","IC50 ([2]; Table 2, read-out: I.C.50-value using as substrate [14C]phenylethylamine hydrochloride)"
C#CCNc1ccc2c(c1)SC1=NCCN12,800 nM,55000 nM,
CC(CO)Nc1ccc2c(c1)N1CCN=C1S2 (stereo not shown),130 nM,,
CCCCCCN(C=C(C(=O)OCC)C(=O)OCC)c1ccc2c(c1)SC1=[N+](CCCCCC)CCN12,,,1800 nM
"CCCc1ccc2c(c1)SC1=NC(c3ccccc3)CN12 (stereo not shown) [2-C6 H5,7-C3 H7]",2500 nM,6000 nM,
"c1ccc2c3c(ccc2c1)SC1=NCCN13 [5,6-(CHCHCHCH)]",6 nM,4000 nM,
"c1c2c(cc3c1SC1=NCCN13)CCC2 [6,7-(CH2)3]",55 nM,12000 nM,
CCc1ccc2c(c1)N1CCN=C1S2 [6-C2 H5],140 nM,10000 nM,
"O=C(c1ccccc1)c1ccc2c(c1)N1CCN=C1S2 [6-COC6 H5, (2,3-dihydroimidazo[2,1-b]benzothiazol-6-yl)phenylmethanone monohydrochloride]",220 nM,3000 nM,
"CCNc1ccc2c(c1)N1CCN=C1S2 [6-NHC2 H5, N-ethyl-2,3-dihydroimidazo[2,1-b]benzothiazol-6-amine]",18 nM,40000 nM,
Clc1ccc(CNc2ccc3c(c2)N2CCN=C2S3)cc1 [6-NHCH2(4-ClC6 H4)],26 nM,70 nM,
CCC(CC)Nc1ccc2c(c1)N1CCN=C1S2 [6-NHCH(C2 H5)2],6 nM,1800 nM,
"CC(C)Nc1ccc2c(c1)N1CCN=C1S2 [6-NHi . C3 H7, 2,3-dihydro-N-(1-methylethyl)imidazo[2,1-b]benzothiazol-6-amine]",18 nM,34000 nM,
CCCCCCc1ccc2c(c1)SC1=NCCN12 [7-C6 H13],20 nM,40 nM,
CCCN(C=C(C(=O)OCC)C(=O)OCC)c1ccc2c(c1)SC1=NCCN12 [7-N(C3 H7)CHC(COOEt)2],220 nM,2200 nM,
CCNc1ccc2c(c1)SC1=NCCN12 [7-NHC2 H5],100 nM,45000 nM,
"COc1cc(CNc2ccc3c(c2)SC2=NCCN23)cc(OC)c1OC [7-NHCH2 [3,4,5-(OCH3)3C6 H2]]",20000 nM,70 nM,
"CCOC(=O)C(=CNc1ccc2c(c1)SC1=NCCN12)C(=O)OCC [7-NHCHC(COOEt)2, diethyl 2-[(2,3-dihydroimidazo[2,1-b]benzothiazol-7-yl-amino)methylene]propanedioate]",3400 nM,30 nM,
c1ccc(Oc2ccc3c(c2)SC2=NCCN23)cc1 [7-OC6 H5],450 nM,95 nM,
c1cc2c(cc1C1CCCCC1)SC1=NCCN12 [7-c . C6 H 11],12 nM,65 nM,
CCNc1cccc2c1SC1=NCCN12 [8-NHC2 H5],2 nM,40000 nM,
Cc1cccc2c1N1CCN=C1S2 [Example 5-CH3],220 nM,4000 nM,
Clc1cccc2c1N1CCN=C1S2 [Example 5-Cl],120 nM,600 nM,
"CC(=O)Nc1ccc2c(c1)N1CCN=C1S2 [Example 6-NHCOCH3, N-(2,3-dihydroimidazo[2,1-b]benzothiazol-6-yl)acetamide]",1800 nM,85000 nM,
"NC(=O)Nc1ccc2c(c1)N1CCN=C1S2 [Example 6-NHCONH2, N-(2,3-dihydroimidazo[2,1-b]benzothiazol-6-yl)urea]",1600 nM,12000 nM,
COc1ccc2c(c1)SC1=NCCN12 [Example 7-OCH3],280 nM,14000 nM,
"Oc1ccc2c(c1)SC1=NCCN12 [Example 7-OH, 2,3-dihydroimidazo[2,1-b]benzothiazol-7-ol monohydrobromide]",2000 nM,,
